Results from patent US5473055A, “Polymer-bound paclitaxel derivatives” (Farmitalia Carlo Erba S.r.l., priority 1992, dated 1995).
Where two headings read alike, the source gives them in different places.

Columns and labels:
[1] = system: Calf brain tubulin; test: Microtubule assembly and disassembly assay; assay type: biochemical; details: percentage of repolymerisation induced after CaCl2 depolymerisation
Protocol: Calf brain tubulin was prepared by two cycles of assembly-disassembly (Shelanski M. L. Gaskin F. and Cantor C. R., Proc. Natl. Acad. Sci. U.S.A. 70, 765-768, 1973) and stored in liquid nitrogen in MAB (0.1M MES, 2.5 mM EGTA, 0.5 mM MgSO4, 0.1 mM EDTA, 0.1 mM DTT pH 6.4).
All the experiments were carried out on protein stored for less than 4 weeks.
Before each experiment, the tubulin was kept 30 min at 4° C.
Assembly was monitored by the method of Gaskin et al (Gaskin F., Cantor C. R. Shelanski M. L. J. Molec. Biol 89, 737-758, 1974). The cuvette (1 cm path) containing tubulin (1 mg/ml) and 1 mM GTP was shifted to 37° C. and continous turbidity measurements were made at 340 nm on Perkin-Elmer 557 Double Wavelength Double Beam Spectrophotometer equipped with an automatic recorder and a termostatically regulated sample chamber.
After 30 minutes 4 mM CaCl2 was added and depolymerisation was measured for 10 minutes as decreased turbidity. At regular intervals of 15 minutes scalar doses of the tested compounds were added and variations in the turbidity were monitored. Data are espressed as percentage of ripolymerisation induced by the tested compounds.

[2] = system: B16-F10 murine melanoma cells; test: In vitro drug sensitivity assay; assay type: cell-based; details: 72 hrs incubation, cell counting, read-out: IC50 (dose causing 50% inhibition cell growth)
Protocol: Exponentially growing B16-F10 murine melanoma cells were seeded (2×10^4 /ml) in RPMI 1640 medium were supplemented with 10% heat-inactivated fetal calf serum and 2 mM glutamine in 24 well-plates (Costar). Scalar concentrations of tested compounds were added immediately after seeding. The inhibition of cell growth was evaluated by counting cells with a coulter counter after 72 hrs incubation. For each tested compound concentration triplicate cultures were used. The antiproliferative activity of the tested compounds was calculated from dose-response curves and espressed as IC50 (dose causing 50% inhibition cell growth in treated cultures relative to untreated controls).

[3] = system: B16 F10 murine melanoma; test: In vivo antitumor activity against B16 F10 murine melanoma; design: species or system C57B16 female mice
Protocol: The copolymer-paclitaxel prepared in Example 6 was tested in vivo against B16 F10 murine melanoma in comparison with paclitaxel.
C57B16 female mice were obtained from Charles River Italy.
Animals were 8 to 10 weeks old at the beginning of the experiment.
The murine melanoma B16F10 was used. A suspension of 10^5 tumor cells in 0.2 ml was injected subcutaneously in the flank of mice.
Tumor size was measured with caliper and tumor weight was calculated with the formula: [formula]
(§1) The compound of example 6 was injected intravenously. Both compounds were administered at day 1, 5, 9 after tumor implantation.
The dose of the polymer-conjugate is referred to the paclitaxel content.

[4] = TOX determination in tumor-bearing mice; assay type: in vivo, C57B16 female mice; details: day 1, 5, 9
Protocol: as §1
TOX: number of mice which died for toxicity.
TOX determination was made when mice died before the control or when significant body weight loss and/or spleen and or/or liver size reduction were observed.

Row | Molecule | Tubulin Assembly % ([1]; 0.5 μM) | Tubulin Assembly % ([1]; 5 μM) | IC50 ([2]; Mus musculus) | IC50 [2] | also measured
1 | CC(=O)OC1C(=O)C2(C)C(O)CC3OCC3(OC(C)=O)C2C(OC(=O)c2ccccc2)C2(O)CC(OC(=O)C(OC(=O)CNC(=O)C(CC(C)C)NC(=O)C(N)Cc3ccccc3)C(NC(=O)c3ccccc3)c3ccccc3)C(C)=C1C2(C)C (stereo not shown) [Example 3, 2'(phenylalanyl-leucyl-glycyl)paclitaxel] | 46% | 86% | 23 µM |  | 
2 | CC(=O)OC1C(=O)C2(C)C(OC(=O)CCN)CC3OCC3(OC(C)=O)C2C(OC(=O)c2ccccc2)C2(O)CC(OC(=O)C(O)C(NC(=O)c3ccccc3)c3ccccc3)C(C)=C1C2(C)C (stereo not shown) [Example 9, 7-(βalanyl)paclitaxel] | 79% | 145% | 47 µM |  | 
3 | CC(=O)O[C@H]1C(=O)[C@@]2(C)[C@H]([C@H](OC(=O)c3ccccc3)[C@]3(O)C[C@H](OC(=O)[C@H](O)[C@@H](NC(=O)c4ccccc4)c4ccccc4)C(C)=C1C3(C)C)[C@]1(OC(C)=O)CO[C@@H]1C[C@@H]2O [Paclitaxel] | 41% | 96% | 39 µM |  | Tumor Inhibition (%) ([3]; 14.6 mg/Kg intraperitoneally, day 1, 5, 9 after tumor implantation): 53%; Tumor Inhibition (%) ([3]; 22 mg/Kg intraperitoneally, day 1, 5, 9): 38%; Tumor Inhibition (%) ([3]; 33 mg/Kg intraperitoneally, day 1, 5, 9): 92%; Tox: number of mice which died for toxicity ([4]; 14.6 mg/Kg intraperitoneally): 0/10; Tox: number of mice which died for toxicity ([4]; 22 mg/Kg intraperitoneally): 0/10; Tox: number of mice which died for toxicity ([4]; 33 mg/Kg intraperitoneally): 1/7; Appearance of the solution (Cremophor EL 50% and ethanol 50%, diluted with glucose 5% solution): slightly hazy and precipitates formation was observed after short time
4 | Copolymer of 1-methacryloylamino-2-hydroxypropane,1-(methacryloyl-glycyl-phenylanyl-leucyl-glycyl)amino-2hydroxypropane and 2(methacryloyl-glycyl-phenylalanyl-leucyl-glycyl-βalanyl)paclitaxel [Example 6] | 0% | 10% |  | 51 µM | Tumor Inhibition (%) ([3]; 14.6 mg/Kg (paclitaxel content) intravenously, day 1, 5, 9): 77%; Tumor Inhibition (%) ([3]; 22 mg/Kg (paclitaxel content) intravenously, day 1, 5, 9): 79%; Tox: number of mice which died for toxicity ([4]; 14.6 mg/Kg (paclitaxel content) intravenously): 0/9; Tox: number of mice which died for toxicity ([4]; 22 mg/Kg (paclitaxel content) intravenously): 0/10; Dissolution in glucose 5% (glucose 5%): easily dissolved; Time the resulting solution was clear (solution in glucose 5%): more than 2 hours
5 | Copolymer of 1-methacryloylamino-2-hydroxypropane, 1 (methacryloyl-glycyl-phenylalanyl-leucyl-glycyl)amino-2-hydroxypropane and 2'(methacryloyl-glycyl-phenylalanyl-leucyl-glycyl)paclitaxel [Example 1] | 0% | 15% |  | 19 µM | 
6 | Copolymer of 1-methacryloylamino-2-hydroxypropane, 1-(methacryloyl-glycyl)amino-2-hydroxypropane and 2'(methacryloyl-glycyl-phenylalanyl-leucyl-glycyl)paclitaxel [Example 4] | 0% | 10% |  | 11 µM | 
